Here are results for five compounds from BindingDB's records for doi:10.1080/14756360701810207 (Gyeongsang National University, 2008).

This test deals with T1, Polyphenol oxidase 2 (Agaricus bisporus, UniProt O42713).
T1 sequence (O42713 whole entry): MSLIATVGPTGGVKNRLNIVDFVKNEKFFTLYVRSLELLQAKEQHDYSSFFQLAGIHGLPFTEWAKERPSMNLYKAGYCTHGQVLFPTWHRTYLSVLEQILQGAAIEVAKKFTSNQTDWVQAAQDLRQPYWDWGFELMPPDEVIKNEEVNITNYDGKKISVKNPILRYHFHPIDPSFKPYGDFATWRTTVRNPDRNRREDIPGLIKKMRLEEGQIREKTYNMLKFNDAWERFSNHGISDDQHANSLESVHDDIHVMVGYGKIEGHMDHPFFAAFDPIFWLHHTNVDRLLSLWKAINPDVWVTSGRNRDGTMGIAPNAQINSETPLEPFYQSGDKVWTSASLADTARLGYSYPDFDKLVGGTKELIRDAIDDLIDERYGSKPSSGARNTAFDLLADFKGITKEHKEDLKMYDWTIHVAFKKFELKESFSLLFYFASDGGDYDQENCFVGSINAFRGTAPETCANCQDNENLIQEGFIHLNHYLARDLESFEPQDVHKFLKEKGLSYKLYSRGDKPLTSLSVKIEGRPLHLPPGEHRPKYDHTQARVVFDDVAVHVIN
As to the kind of experiment: Tyrosinase Assay. As to conditions: 30 °C. From the text:
Mushroom tyrosinase using either L-DOPA or L-tyrosine as substrate. In spectrophotometric experiments, enzyme activity was monitored by dopachrome formation at 475 nm with a UV-Vis spectrophotometer (Spectro UV-Vis Double beam; UVD-3500, Labomed, Inc.) at 30 C.

Where “and” joins values, the source holds several entries; their conditions need not be identical. Identical values can stand only once.

As usually defined, the IC50 is the midpoint of a concentration-inhibition curve. A lower IC50 goes with greater potency. Broadly, the Ki is a dissociation constant, usually derived from enzyme kinetics or from competition with a known ligand. A low value points to a stronger hold on the target.

Turning to `CC(C)=CCc1c(-c2ccc(O)cc2O)oc2c(CC=C(C)C)c(O)cc(O)c2c1=O`, the IC50 was 135 µM and > 300 µM; the Ki amounted to 80.5 µM.
As for `CC(C)=CC1Oc2cc(O)ccc2-c2oc3c4c(cc(O)c3c(=O)c21)OC(C)(C)C=C4` (stereo not drawn) [Cycolmorusin, 2], the IC50 is 91.6 µM and 161 µM; the Ki is 46.4 µM.
For the compound `C/C(=C\Cc1c(-c2ccc(O)cc2O)oc2c3c(cc(O)c2c1=O)OC(C)(CO)C=C3)CO` (stereo not drawn) [Mormin, 1], the IC50 is 87.8 µM and 215 µM; the Ki turned out to be 49.2 µM.
`CC(C)=CCc1c(-c2ccc(O)cc2O)oc2c3c(cc(O)c2c1=O)OC(C)(C)C=C3` [Morusin, 3] had an IC50 of over 300 µM.
`O=c1cc(-c2ccc(O)cc2O)oc2cc(O)cc(O)c12` [Norartocarpetin, 5] had a Ki of 0.61 µM.
